Reference: US11987588B2, “Modulators of the beta-3 adrenergic receptor useful for the treatment or prevention of heart failure and disorders related thereto” (Arena Pharmaceuticals, Inc., priority 2017, dated 2024)

Each compound was assayed against Beta-3 Adrenergic Receptor (Homo sapiens (Human), UniProt P13945) (assay: Homogeneous Time-Resolved Fluorescence (HTRF) cAMP antagonist assay, IC50 determination). Conditions: CHO-K1 cells stably expressing recombinant receptor, isoproterenol at EC90.
Beta-3 Adrenergic Receptor, sequence (P13945 whole entry, species assumed): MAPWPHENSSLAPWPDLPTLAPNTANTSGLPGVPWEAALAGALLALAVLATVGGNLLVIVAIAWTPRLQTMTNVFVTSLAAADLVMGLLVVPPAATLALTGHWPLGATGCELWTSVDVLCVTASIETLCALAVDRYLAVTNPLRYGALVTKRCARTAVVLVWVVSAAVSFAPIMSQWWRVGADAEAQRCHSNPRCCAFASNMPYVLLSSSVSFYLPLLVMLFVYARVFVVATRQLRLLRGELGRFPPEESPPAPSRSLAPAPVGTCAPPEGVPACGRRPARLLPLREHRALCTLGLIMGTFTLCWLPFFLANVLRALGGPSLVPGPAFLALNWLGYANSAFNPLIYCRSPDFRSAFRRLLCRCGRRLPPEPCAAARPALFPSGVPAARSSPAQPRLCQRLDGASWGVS
Format: cell-based
Description: HTRF cAMP assays were performed according to manufacturer's instructions (Cisbio, cAMP Dynamic 2 Assay Kit; #62AM4PEJ). CHO-K1 cells stably expressing recombinant receptor were harvested and suspended in warm PBS to make a 300,000 cells/mL stock. This cell suspension was dispensed into 384 well assay plates (PerkinElmer ProxiPlate #6008280) at 5 μL per well (1500 cells/well) along with a cAMP standard curve.
Compounds were dissolved and serially diluted (5-fold) in DMSO to generate a 10-point dose response stock. The stock was then diluted 100-fold in assay buffer (PBS containing 1 mM IBMX) before a volume of 2.5 μL was added to the cells (the final, top concentration of compound in the dose-response is typically 10 or 100 μM). After a brief incubation, 2.5 μL of isoproterenol stock, prepared at a concentration 4 times its EC90 at the receptor of interest, was added to the wells. The EC90 for isoproterenol, a beta-adrenergic agonist, was determined in separate experiments using standard methods to measure agonist potencies.
Following a 1-hour incubation at room temperature, 5 μL of cAMP-D2 Reagent diluted in Lysis Buffer was added to each well followed by 5 μL of Cryptate Reagent. Plates were further incubated at room temperature for 1 hour prior to reading. Time resolved fluorescence measurements were collected on a suitable, HTRF-capable plate reader.
Counts from the plate reader were fit to the cAMP standard curve on the assay plate in order to determine cAMP concentrations in each well, and these values were used to construct dose-response curves to obtain IC50 values.
For `CNS(=O)(=O)c1cccc(OC[C@@H](O)CNC2COC3(CCN(S(=O)(=O)c4ccc(C(C)=O)cc4)CC3)C2)c1` (stereo partly drawn) [Compound 25, 3-((2S)-3-(8-(4-acetylphenylsulfonyl)-1-oxa-8-azaspiro[4.5]decan-3-ylamino)-2-hydroxypropoxy)-N-methylbenzenesulfonamide], the IC50 was 26 nM.
`CNS(=O)(=O)c1cccc(OC[C@@H](O)CNC2COC3(CCN(S(=O)(=O)c4ccc(F)cc4)CC3)C2)c1` (stereo partly drawn) [Compound 26, 3-((2S)-3-(8-(4-fluorophenylsulfonyl)-1-oxa-8-azaspiro[4.5]decan-3-ylamino)-2-hydroxypropoxy)-N-methylbenzenesulfonamide] was tested, and the IC50 was 34.1 nM.
In the case of `CNS(=O)(=O)c1cccc(OC[C@@H](O)CNC2COC3(CCN(S(=O)(=O)c4cccc(OC)c4)CC3)C2)c1` (stereo partly drawn) [Compound 27, 3-((2S)-2-hydroxy-3-(8-(3-methoxyphenylsulfonyl)-1-oxa-8-azaspiro[4.5]decan-3-ylamino)propoxy)-N-methylbenzenesulfonamide], the IC50 is reported as 13.8 nM.
`CNS(=O)(=O)c1cccc(OC[C@@H](O)CNC2COC3(CCN(S(=O)(=O)c4cccc(F)c4)CC3)C2)c1` (stereo partly drawn) [Compound 28, 3-((2S)-3-(8-(3-fluorophenylsulfonyl)-1-oxa-8-azaspiro[4.5]decan-3-ylamino)-2-hydroxypropoxy)-N-methylbenzenesulfonamide] gave an IC50 of 16.2 nM.
For `CNS(=O)(=O)c1cccc(OC[C@@H](O)CN[C@@H]2COC3(CCN(S(=O)(=O)c4ccc5ccccc5c4)CC3)C2)c1` [Compound 29, 3—((S)-2-hydroxy-3-((S)-8-(naphthalen-2-ylsulfonyl)-1-oxa-8-azaspiro[4.5]decan-3-ylamino)propoxy)-N-methylbenzenesulfonamide], the IC50 was 4.53 nM.
For `CNS(=O)(=O)c1cccc(OC[C@@H](O)CN[C@H]2COC3(CCN(S(=O)(=O)c4ccc5ccccc5c4)CC3)C2)c1` [Compound 30, 3—((S)-2-hydroxy-3-((R)-8-(naphthalen-2-ylsulfonyl)-1-oxa-8-azaspiro[4.5]decan-3-ylamino)propoxy)-N-methylbenzenesulfonamide], the IC50 was 4.41 nM.
`CNS(=O)(=O)c1cccc(OC[C@@H](O)CNC2COC3(CCN(S(=O)(=O)c4cccc(-c5ccccc5)c4)CC3)C2)c1` (stereo partly drawn) [Compound 31, 3-((2S)-3-(8-(biphenyl-3-ylsulfonyl)-1-oxa-8-azaspiro[4.5]decan-3-ylamino)-2-hydroxypropoxy)-N-methylbenzenesulfonamide] gave an IC50 of 21 nM.
With `CNS(=O)(=O)c1cccc(OC[C@@H](O)CNC2COC3(CCN(S(=O)(=O)c4cccc(C#N)c4)CC3)C2)c1` (stereo partly drawn) [Compound 32, 3-((2S)-3-(8-(3-cyanophenylsulfonyl)-1-oxa-8-azaspiro[4.5]decan-3-ylamino)-2-hydroxypropoxy)-N-methylbenzenesulfonamide] the IC50 was 16.6 nM.
Work on `CNS(=O)(=O)c1cccc(OC[C@@H](O)CNC2COC3(CCN(S(=O)(=O)c4ccccc4C(F)(F)F)CC3)C2)c1` (stereo partly drawn) [Compound 33, 3-((2S)-2-hydroxy-3-(8-(2-(trifluoromethyl)phenylsulfonyl)-1-oxa-8-azaspiro[4.5]decan-3-ylamino)propoxy)-N-methylbenzenesulfonamide] yielded an IC50 of 17.6 nM.
Work on `CNS(=O)(=O)c1cccc(OC[C@@H](O)CNC2COC3(CCN(S(=O)(=O)c4ccccc4F)CC3)C2)c1` (stereo partly drawn) [Compound 34, 3-((2S)-3-(8-(2-fluorophenylsulfonyl)-1-oxa-8-azaspiro[4.5]decan-3-ylamino)-2-hydroxypropoxy)-N-methylbenzenesulfonamide] yielded an IC50 of 24.2 nM.
With `CNS(=O)(=O)c1cccc(OC[C@@H](O)CNC2COC3(CCN(S(=O)(=O)c4ccccc4Cl)CC3)C2)c1` (stereo partly drawn) [Compound 35, 3-((2S)-3-(8-(2-chlorophenylsulfonyl)-1-oxa-8-azaspiro[4.5]decan-3-ylamino)-2-hydroxypropoxy)-N-methylbenzenesulfonamide] the IC50 was 18.9 nM.
`CNS(=O)(=O)c1cccc(OC[C@@H](O)CNC2COC3(CCN(S(=O)(=O)c4ccc(C(C)(C)C)cc4)CC3)C2)c1` (stereo partly drawn) [Compound 36, 3-((2S)-3-(8-(4-tert-butylphenylsulfonyl)-1-oxa-8-azaspiro[4.5]decan-3-ylamino)-2-hydroxypropoxy)-N-methylbenzenesulfonamide] showed an IC50 of 13.2 nM.
Work on `CNS(=O)(=O)c1cccc(OC[C@@H](O)CNC2COC3(CCN(S(=O)(=O)c4ccc(S(C)(=O)=O)cc4)CC3)C2)c1` (stereo partly drawn) [Compound 37, 3-((2S)-2-hydroxy-3-(8-(4-(methylsulfonyl)phenylsulfonyl)-1-oxa-8-azaspiro[4.5]decan-3-ylamino)propoxy)-N-methylbenzenesulfonamide] yielded an IC50 of 49.3 nM.
`CNS(=O)(=O)c1cccc(OC[C@@H](O)CNC2COC3(CCN(S(=O)(=O)c4cccc(C(F)(F)F)c4)CC3)C2)c1` (stereo partly drawn) [Compound 38, 3-((2S)-2-hydroxy-3-(8-(3-(trifluoromethyl)phenylsulfonyl)-1-oxa-8-azaspiro[4.5]decan-3-ylamino)propoxy)-N-methylbenzenesulfonamide] was tested, and the IC50 was 18.7 nM.
Work on `CNS(=O)(=O)c1cccc(OC[C@@H](O)CNC2COC3(CCN(S(=O)(=O)c4ccccc4C#N)CC3)C2)c1` (stereo partly drawn) [Compound 39, 3-((2S)-3-(8-(2-cyanophenylsulfonyl)-1-oxa-8-azaspiro[4.5]decan-3-ylamino)-2-hydroxypropoxy)-N-methylbenzenesulfonamide] yielded an IC50 of 30.7 nM.
With `CNS(=O)(=O)c1cccc(OC[C@@H](O)CNC2COC3(CCN(S(=O)(=O)c4ccc(C(=O)O)cc4)CC3)C2)c1` (stereo partly drawn) [Compound 40, 4-(3-((S)-2-hydroxy-3-(3-(N-methylsulfamoyl)phenoxy)propylamino)-1-oxa-8-azaspiro[4.5]decan-8-ylsulfonyl)benzoic acid] the IC50 was 577 nM.
`CNS(=O)(=O)c1cccc(OC[C@@H](O)CNC2COC3(CCN(S(=O)(=O)c4ccc5c(c4)CCCO5)CC3)C2)c1` (stereo partly drawn) [Compound 41, 3-((2S)-3-(8-(chroman-6-ylsulfonyl)-1-oxa-8-azaspiro[4.5]decan-3-ylamino)-2-hydroxypropoxy)-N-methylbenzenesulfonamide] was tested, and the IC50 was 6.82 nM.
For `CNS(=O)(=O)c1cccc(OC[C@@H](O)CNC2COC3(CCN(S(=O)(=O)c4ccc(NC(C)=O)cc4)CC3)C2)c1` (stereo partly drawn) [Compound 42, N-(4-(3-((S)-2-hydroxy-3-(3-(N-methylsulfamoyl)phenoxy)propylamino)-1-oxa-8-azaspiro[4.5]decan-8-ylsulfonyl)phenyl)acetamide], the IC50 was 31.9 nM.
With `CNS(=O)(=O)c1cccc(OC[C@@H](O)CNC2COC3(CCN(S(=O)(=O)c4ccccc4S(C)(=O)=O)CC3)C2)c1` (stereo partly drawn) [Compound 43, 3-((2S)-2-hydroxy-3-(8-(2-(methylsulfonyl)phenylsulfonyl)-1-oxa-8-azaspiro[4.5]decan-3-ylamino)propoxy)-N-methylbenzenesulfonamide] the IC50 was 74 nM.
With `CNS(=O)(=O)c1cccc(OC[C@@H](O)CNC2COC3(CCN(S(=O)(=O)c4ccc(C#N)cc4)CC3)C2)c1` (stereo partly drawn) [Compound 44, 3-((2S)-3-(8-(4-cyanophenylsulfonyl)-1-oxa-8-azaspiro[4.5]decan-3-ylamino)-2-hydroxypropoxy)-N-methylbenzenesulfonamide] the IC50 was 34.1 nM.
For `CNS(=O)(=O)c1cccc(OC[C@@H](O)CNC2COC3(CCN(S(=O)(=O)c4ccc(C(F)(F)F)cc4)CC3)C2)c1` (stereo partly drawn) [Compound 45, 3-((2S)-2-hydroxy-3-(8-(4-(trifluoromethyl)phenylsulfonyl)-1-oxa-8-azaspiro[4.5]decan-3-ylamino)propoxy)-N-methylbenzenesulfonamide], the IC50 was 19.4 nM.
For `CC(O)CNS(=O)(=O)c1cccc(OC[C@@H](O)CNC2COC3(CCN(S(=O)(=O)c4ccc5ccccc5c4)CC3)C2)c1` (stereo partly drawn) [Compound 46, 3-((2S)-2-hydroxy-3-(8-(naphthalen-2-ylsulfonyl)-1-oxa-8-azaspiro[4.5]decan-3-ylamino)propoxy)-N-(2-hydroxypropyl)benzenesulfonamide], the IC50 was 54.1 nM.
`CCOCCNS(=O)(=O)c1cccc(OC[C@@H](O)CNC2COC3(CCN(S(=O)(=O)c4ccc5ccccc5c4)CC3)C2)c1` (stereo partly drawn) [Compound 47, N-(2-ethoxyethyl)-3-((2S)-2-hydroxy-3-(8-(naphthalen-2-ylsulfonyl)-1-oxa-8-azaspiro[4.5]decan-3-ylamino)propoxy)benzenesulfonamide] showed an IC50 of 155 nM.
Compound `C[C@@H](CO)NS(=O)(=O)c1cccc(OC[C@@H](O)CNC2COC3(CCN(S(=O)(=O)c4ccc5ccccc5c4)CC3)C2)c1` (stereo partly drawn) [Compound 48, 3-((2S)-2-hydroxy-3-(8-(naphthalen-2-ylsulfonyl)-1-oxa-8-azaspiro[4.5]decan-3-ylamino)propoxy)-N—((S)-1-hydroxypropan-2-yl)benzenesulfonamide] has an IC50 of 133 nM.
Compound `CC(C)(CO)NS(=O)(=O)c1cccc(OC[C@@H](O)CNC2COC3(CCN(S(=O)(=O)c4ccc5ccccc5c4)CC3)C2)c1` (stereo partly drawn) [Compound 49, N-(1-hydroxy-2-methylpropan-2-yl)-3-((2S)-2-hydroxy-3-(8-(naphthalen-2-ylsulfonyl)-1-oxa-8-azaspiro[4.5]decan-3-ylamino)propoxy)benzenesulfonamide] has an IC50 of 107 nM.
Work on `O=S(=O)(NC1CCOCC1)c1cccc(OC[C@@H](O)CNC2COC3(CCN(S(=O)(=O)c4ccc5ccccc5c4)CC3)C2)c1` (stereo partly drawn) [Compound 50, 3-((2S)-2-hydroxy-3-(8-(naphthalen-2-ylsulfonyl)-1-oxa-8-azaspiro[4.5]decan-3-ylamino)propoxy)-N-(tetrahydro-2H-pyran-4-yl)benzenesulfonamide] yielded an IC50 of 87.2 nM.
